Results as given in article PMC8766848, “The Structural Basis of Babesia orientalis Lactate Dehydrogenase” (Frontiers in Cellular and Infection Microbiology, 2022).

Molecular target: T1, Babesia orientalis lactate dehydrogenase (BoLDH) (Babesia orientalis, UniProt A0A8X6EH37)
T1 construct: full-length ORF (330 residues), N-terminal His6 tag, recombinant rBoLDH
T1 sequence (A0A8X6EH37 1-330): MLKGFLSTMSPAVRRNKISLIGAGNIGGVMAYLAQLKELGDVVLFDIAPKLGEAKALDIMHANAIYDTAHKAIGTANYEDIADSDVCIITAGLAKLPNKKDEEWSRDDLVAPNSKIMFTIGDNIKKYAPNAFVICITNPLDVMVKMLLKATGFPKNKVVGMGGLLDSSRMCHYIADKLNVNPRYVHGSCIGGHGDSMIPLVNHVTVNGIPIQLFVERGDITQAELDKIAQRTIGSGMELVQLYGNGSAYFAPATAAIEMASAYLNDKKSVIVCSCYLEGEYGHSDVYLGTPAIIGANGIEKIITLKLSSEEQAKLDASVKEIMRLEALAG
Test: Michaelis-Menten inhibition kinetics, lactate to pyruvate, NADH absorbance at […] nm, […] gossypol
Type: biochemical

Question: For `Cc1cc2c(C(C)C)c(O)c(O)c(C=O)c2c(O)c1-c1c(C)cc2c(C(C)C)c(O)c(O)c(C=O)c2c1O` [gossypol], which Ki is on record?
Answer: 4.24 ± 0.25 µM
